Measurements reported in patent US12350708B2, “Molecular coatings and methods of making and using the same” (Glisten LLC, priority 2019, dated 2025).

Experiment: water contact angle testing of diamond surfaces
Assay type: physicochemical
Details: diamond surface, Example 11, FIGS. 20A-20D; uncoated diamond approximately 65°
From the text: In some embodiments, water contact angle goniometry can be used to probe the surface properties and performance of the functionalized gemstones (e.g., of the diamond surface, of the surface after the anchor molecule is bound, and/or of the surface after the host molecule is bound forming an inclusion complex). In some embodiments, comparisons of water contact angle can be employed to analytically determine the specific coverage of adsorbed species pertaining to the anchor and to the host/guest complex. In some embodiments, water contact angle can be used to determine the durability of the gemstone coating by performing measurements at various stages of time after normal use after the host/guest inclusion complexes are formed. […]
(§1) Self-assembly of the β-cyclodextrin is analyzed with water contact angle. Angles will decrease according to the quantity of cyclodextrin residing on the substrate. The change in the refractive index of the surface after molecular coating is determined using optical ellipsometry. […]
as §1

In the case of `OC[C@H]1O[C@@H]2O[C@H]3[C@H](O)[C@@H](O)[C@@H](O[C@H]4[C@H](O)[C@@H](O)[C@@H](O[C@H]5[C@H](O)[C@@H](O)[C@@H](O[C@H]6[C@H](O)[C@@H](O)[C@@H](O[C@H]7[C@H](O)[C@@H](O)[C@@H](O[C@H]8[C@H](O)[C@@H](O)[C@@H](O[C@H]1[C@H](O)[C@H]2O)O[C@@H]8CO)O[C@@H]7CO)O[C@@H]6CO)O[C@@H]5CO)O[C@@H]4CO)O[C@@H]3CO` [b-cyclodextrin, β-cyclodextrin], the contact angle is reported as 61 °.
